Drawing on patent US8759342B2, “Benzo[1,4]oxazin-3-one, benzo[1,4]thiazin-3-one and quinolin-2-one urotensin II receptor antagonists” (Janssen Pharmaceutica NV, priority 2006, dated 2014), this text covers IC50 for 30 compounds.

Structures are written as SMILES.

By IC50 is commonly meant the midpoint of a concentration-inhibition curve.

This test concerns the target T1, rat GPR14 (U-II receptor) (Rattus norvegicus, UniProt P49684).
T1 construct: expressed in transfected cells
T1 sequence (P49684 1-386): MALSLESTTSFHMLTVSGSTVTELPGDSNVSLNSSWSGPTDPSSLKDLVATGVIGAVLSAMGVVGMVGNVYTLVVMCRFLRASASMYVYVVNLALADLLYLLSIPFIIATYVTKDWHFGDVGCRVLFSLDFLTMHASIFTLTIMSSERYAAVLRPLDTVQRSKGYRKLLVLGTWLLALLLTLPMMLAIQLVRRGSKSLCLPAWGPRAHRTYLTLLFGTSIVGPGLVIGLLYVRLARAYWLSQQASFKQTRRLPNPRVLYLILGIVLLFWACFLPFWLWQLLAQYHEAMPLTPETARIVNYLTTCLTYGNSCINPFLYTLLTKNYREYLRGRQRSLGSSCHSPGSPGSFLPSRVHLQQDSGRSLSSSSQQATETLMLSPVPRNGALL
The experiment in a line: Calcium flux assay (FLIPR). In kind it is cell-based. Conditions: Inhibition of acetyl-cyclic[Cys-Phe-Trp-Lys-(2-Nal)-Cys]-NH2 (1 nM) induced Ca2+ mobilization (FLIPR) in CHO cells transfected with rat UII receptor; 5 min incubation. An excerpt:
To derive these cells, the complete coding sequence of rat […] was amplified by nested PCR from rat heart marathon-Ready cDNA. […] The PCR products were cloned into pcDNA3 (Invitrogen) digested with EcoR I and Xba I. Clones containing rat U-II receptor were verified by complete sequencing of the U-II receptor insert to ensure a lack of PCR-introduced errors. The constructed vector was transfected into CHO cells by using lipofectamine (GIBCO BRL). CHO cells with high expression of rat U-II receptor were selected and established as stable cell lines by using G418. CHO cells were seeded at 25,000 cells per well into 96-well, black-wall, clear-bottom microtiter plates 24 hrs before assay. Cells in culture media (DMEM/F12 containing 15 mM HEPES, L-glutamine, pyridoxine hydrochloride; 10% fetal bovine serum; 1 mg/mL G418 sulfate; antibiotic-antimycotic; pH 7.4) were loaded with proprietary dye, from the FLIPR Calcium Assay Kit (Molecular Devices), prepared in assay buffer (Hanks Balanced Salts Solution, 20 mM HEPES, 0.1% BSA, 2.5 mM probenecid, pH 7.4), and incubated for 1 hr at 37° C. Calcium mobilization determinations were performed at room temperature (23° C.).
As to `O=C(NCCc1cccs1)c1ccccc1C1CCN(CCN2C(=O)COc3ccccc32)CC1` [Cpd 47, 2-{1-[2-(3-oxo-2,3-dihydro-benzo[1,4]oxazin-4-yl)-ethyl]-piperidin-4-yl}-N-(2-thiophen-2-yl-ethyl)-benzamide], the concentration for half-maximal inhibition (IC50) is 7 µM.

On to `Cc1ccc(C2CCN(CCN3C(=O)COc4ccccc43)CC2)cc1` [Cpd 90, 4-[2-(4-p-tolyl-piperidin-1-yl)-ethyl]-4H-benzo[1,4]oxazin-3-one], for which the half-maximal inhibitory concentration (IC50) worked out at 15 µM.

Take `O=C1COc2ccccc2N1CCN1CCC(c2cccc(F)c2)CC1` [Cpd 88, 4-{2-[4-(3-fluoro-phenyl)-piperidin-1-yl]-ethyl}-4H-benzo[1,4]oxazin-3-one]: the IC50 was found to be 28 µM.

Take `CN(C)C(=O)c1cc(Cl)ccc1C1CCN(CCN2C(=O)COc3ccccc32)CC1` [Cpd 59, 5-chloro-N,N-dimethyl-2-{1-[2-(3-oxo-2,3-dihydro-benzo[1,4]oxazin-4-yl)-ethyl]-piperidin-4-yl}-benzamide]: the half-inhibitory concentration (IC50) worked out at 10 µM.

`COc1ccc(C2CCN(CCN3C(=O)COc4ccccc43)CC2)cc1` [Cpd 87, 4-{2-[4-(4-methoxy-phenyl)-piperidin-1-yl]-ethyl}-4H-benzo[1,4]oxazin-3-one]: the IC50 worked out at 47 µM.

Consider `O=C(NCc1ccncc1)c1ccccc1C1CCN(CCN2C(=O)COc3ccccc32)CC1` [Cpd 44, 2-{1-[2-(3-oxo-2,3-dihydro-benzo[1,4]oxazin-4-yl)-ethyl]-piperidin-4-yl}-N-pyridin-4-ylmethyl-benzamide], for which the IC50 is 21 µM.

Consider `COC(=O)c1cc(Cl)ccc1C1CCN(CCN2C(=O)COc3ccccc32)CC1` [Cpd 56, 5-chloro-2-{1-[2-(3-oxo-2,3-dihydro-benzo[1,4]oxazin-4-yl)-ethyl]-piperidin-4-yl}-benzoic acid methyl ester], for which the IC50 was 8 µM.

Consider `O=C1COc2ccccc2N1CCN1CCC(C(=O)NCc2ccccc2)(c2ccccc2)CC1` [Cpd 104, 1-[2-(3-oxo-2,3-dihydro-benzo[1,4]oxazin-4-yl)-ethyl]-4-phenyl-piperidine-4-carboxylic acid benzylamide], for which the 50% inhibitory concentration (IC50) turned out to be 26 µM.

Take `O=C1COc2ccccc2N1CCN1CCC(C(=O)NCCc2ccccc2)(c2ccc(Cl)cc2)CC1` [Cpd 109, 4-(4-chloro-phenyl)-1-[2-(3-oxo-2,3-dihydro-benzo[1,4]oxazin-4-yl)-ethyl]-piperidine-4-carboxylic acid phenethyl-amide]: the IC50 stood at 5 µM.

In the case of `O=C(NCCc1ccc(Cl)cc1Cl)c1ccccc1C1CCN(CCN2C(=O)COc3ccccc32)CC1` [Cpd 7, N-[2-(2,4-dichloro-phenyl)-ethyl]-2-{1-[2-(3-oxo-2,3-dihydro-benzo[1,4]oxazin-4-yl)-ethyl]-piperidin-4-yl}-benzamide], the concentration for half-maximal inhibition (IC50) came to 19 µM.

Consider `CN(CCc1ccccc1)C(=O)C1(c2ccccc2)CCN(CCN2C(=O)COc3ccccc32)CC1` [Cpd 106, 1-[2-(3-oxo-2,3-dihydro-benzo[1,4]oxazin-4-yl)-ethyl]-4-phenyl-piperidine-4-carboxylic acid methyl-phenethyl-amide], for which the IC50 came out at 14 µM.

In the case of `CC(=O)NCCNC(=O)c1ccccc1C1CCN(CCN2C(=O)COc3ccccc32)CC1` [Cpd 49, N-(2-acetylamino-ethyl)-2-{1-[2-(3-oxo-2,3-dihydro-benzo[1,4]oxazin-4-yl)-ethyl]-piperidin-4-yl}-benzamide], the concentration for half-maximal inhibition (IC50) was 38 µM.

`CCOCCCNC(=O)c1ccccc1C1CCN(CCN2C(=O)COc3ccccc32)CC1` [Cpd 38, N-(3-ethoxy-propyl)-2-{1-[2-(3-oxo-2,3-dihydro-benzo[1,4]oxazin-4-yl)-ethyl]-piperidin-4-yl}-benzamide]: the IC50 was found to be 23 µM.

For the compound `O=C1COc2ccccc2N1CCN1CCC(C(=O)NCCCCc2ccccc2)(c2ccccc2)CC1` [Cpd 108, 1-[2-(3-oxo-2,3-dihydro-benzo[1,4]oxazin-4-yl)-ethyl]-4-phenyl-piperidine-4-carboxylic acid (4-phenyl-butyl)-amide], the IC50 was determined as 8.8 µM.

Regarding `COc1ccc(CCNC(=O)c2ccccc2C2CCN(CCN3C(=O)COc4ccccc43)CC2)cc1` [Cpd 14, N-[2-(4-methoxy-phenyl)-ethyl]-2-{1-[2-(3-oxo-2,3-dihydro-benzo[1,4]oxazin-4-yl)-ethyl]-piperidin-4-yl}-benzamide], the IC50 is 4 µM.

In the case of `O=C(NCCCO)c1ccccc1C1CCN(CCN2C(=O)COc3ccccc32)CC1` [Cpd 39, N-(3-hydroxy-propyl)-2-{1-[2-(3-oxo-2,3-dihydro-benzo[1,4]oxazin-4-yl)-ethyl]-piperidin-4-yl}-benzamide], the IC50 was determined as 32 µM.

In the case of `O=C1COc2ccccc2N1CCN1CCC(C(=O)NCCCc2ccccc2)(c2ccccc2)CC1` [Cpd 107, 1-[2-(3-oxo-2,3-dihydro-benzo[1,4]oxazin-4-yl)-ethyl]-4-phenyl-piperidine-4-carboxylic acid (3-phenyl-propyl)-amide], the IC50 came out at 9.1 µM.

For `O=C(NCCN1CCCCC1)c1ccccc1C1CCN(CCN2C(=O)COc3ccccc32)CC1` [Cpd 52, 2-{1-[2-(3-oxo-2,3-dihydro-benzo[1,4]oxazin-4-yl)-ethyl]-piperidin-4-yl}-N-(2-piperidin-1-yl-ethyl)-benzamide], the half-inhibitory concentration (IC50) came to 16 µM.

With `O=C(NCCCCCNC(=O)c1cc(Cl)ccc1C1CCN(CCN2C(=O)COc3ccccc32)CC1)Nc1ccccc1` [Cpd 81, 5-chloro-2-{1-[2-(3-oxo-2,3-dihydro-benzo[1,4]oxazin-4-yl)-ethyl]-piperidin-4-yl}-N-[5-(3-phenyl-ureido)-pentyl]-benzamide], the half-maximal inhibitory concentration (IC50) amounted to 0.53 µM.

For `Cc1ccccc1C1CCN(CCN2C(=O)COc3ccccc32)CC1` [Cpd 91, 4-[2-(4-o-tolyl-piperidin-1-yl)-ethyl]-4H-benzo[1,4]oxazin-3-one], the half-inhibitory concentration (IC50) is 21 µM.

On to `O=C(NC1CCc2ccccc21)c1ccccc1C1CCN(CCN2C(=O)COc3ccccc32)CC1` (stereo not drawn) [Cpd 27, N-indan-1-yl-2-{1-[2-(3-oxo-2,3-dihydro-benzo[1,4]oxazin-4-yl)-ethyl]-piperidin-4-yl}-benzamide], for which the IC50 worked out at 43 µM.

Consider `O=C(NCCc1cccc(F)c1F)c1ccccc1C1CCN(CCN2C(=O)COc3ccccc32)CC1` [Cpd 23, N-[2-(2,3-difluoro-phenyl)-ethyl]-2-{1-[2-(3-oxo-2,3-dihydro-benzo[1,4]oxazin-4-yl)-ethyl]-piperidin-4-yl}-benzamide], for which the IC50 worked out at 7 µM.

With `O=C(c1ccccc1C1CCN(CCN2C(=O)COc3ccccc32)CC1)N1CCc2ccccc2C1` [Cpd 53, 4-(2-{4-[2-(3,4-dihydro-1H-isoquinoline-2-carbonyl)-phenyl]-piperidin-1-yl}-ethyl)-4H-benzo[1,4]oxazin-3-one], the IC50 is 18 µM.

Consider `O=C(NCCc1ccc(Cl)c(Cl)c1)c1ccccc1C1CCN(CCN2C(=O)COc3ccccc32)CC1` [Cpd 11, N-[2-(3,4-dichloro-phenyl)-ethyl]-2-{1-[2-(3-oxo-2,3-dihydro-benzo[1,4]oxazin-4-yl)-ethyl]-piperidin-4-yl}-benzamide], for which the IC50 worked out at 5.4 µM.

Consider `COc1cccc(CCNC(=O)c2ccccc2C2CCN(CCN3C(=O)COc4ccccc43)CC2)c1` [Cpd 6, N-[2-(3-methoxy-phenyl)-ethyl]-2-{1-[2-(3-oxo-2,3-dihydro-benzo[1,4]oxazin-4-yl)-ethyl]-piperidin-4-yl}-benzamide], for which the 50% inhibitory concentration (IC50) was 10 µM.

As to `O=C(NCCc1ccccc1Cl)c1ccccc1C1CCN(CCN2C(=O)COc3ccccc32)CC1` [Cpd 8, N-[2-(2-chloro-phenyl)-ethyl]-2-{1-[2-(3-oxo-2,3-dihydro-benzo[1,4]oxazin-4-yl)-ethyl]-piperidin-4-yl}-benzamide], the IC50 worked out at 14 µM.

`COc1ccccc1CCNC(=O)c1ccccc1C1CCN(CCN2C(=O)COc3ccccc32)CC1` [Cpd 15, N-[2-(2-methoxy-phenyl)-ethyl]-2-{1-[2-(3-oxo-2,3-dihydro-benzo[1,4]oxazin-4-yl)-ethyl]-piperidin-4-yl}-benzamide]: the half-maximal inhibitory concentration (IC50) was determined as 8 µM.

With `O=C(NCCc1ccccn1)c1ccccc1C1CCN(CCN2C(=O)COc3ccccc32)CC1` [Cpd 42, 2-{1-[2-(3-oxo-2,3-dihydro-benzo[1,4]oxazin-4-yl)-ethyl]-piperidin-4-yl}-N-(2-pyridin-2-yl-ethyl)-benzamide], the IC50 was determined as 20 µM.

For `O=C1COc2ccccc2N1CCN1CCC(c2ccc(Cl)cc2)CC1` [Cpd 85, 4-{2-[4-(4-chloro-phenyl)-piperidin-1-yl]-ethyl}-4H-benzo[1,4]oxazin-3-one], the concentration for half-maximal inhibition (IC50) turned out to be 18 µM.

Turning to `COC(=O)c1ccccc1C1CCN(CCN2C(=O)COc3ccccc32)CC1` [Cpd 93], the IC50 was 32 µM.
